As usually defined, the IC50 is the concentration needed to halve the response being measured.

The results in this text go back to ChEMBL document CHEMBL4270632, “CD73 inhibition by purine cytotoxic nucleoside analogue-based diphosphonates” (Eur J Med Chem, 2018).

The target in assay [1] is T1, 5'-nucleotidase (Homo sapiens, UniProt P21589). Description: Inhibition of recombinant CD73 (27 to 549 residues) (unknown origin) expressed in baculovirus infected Sf9 insect cells assessed as reduction in conversion of AMP to adenosine incubated for 1 min followed by AMP addition measured after 3.5 mins by malachite green reagent based assay.
T1 sequence (P21589 whole entry, the tested form may be a part): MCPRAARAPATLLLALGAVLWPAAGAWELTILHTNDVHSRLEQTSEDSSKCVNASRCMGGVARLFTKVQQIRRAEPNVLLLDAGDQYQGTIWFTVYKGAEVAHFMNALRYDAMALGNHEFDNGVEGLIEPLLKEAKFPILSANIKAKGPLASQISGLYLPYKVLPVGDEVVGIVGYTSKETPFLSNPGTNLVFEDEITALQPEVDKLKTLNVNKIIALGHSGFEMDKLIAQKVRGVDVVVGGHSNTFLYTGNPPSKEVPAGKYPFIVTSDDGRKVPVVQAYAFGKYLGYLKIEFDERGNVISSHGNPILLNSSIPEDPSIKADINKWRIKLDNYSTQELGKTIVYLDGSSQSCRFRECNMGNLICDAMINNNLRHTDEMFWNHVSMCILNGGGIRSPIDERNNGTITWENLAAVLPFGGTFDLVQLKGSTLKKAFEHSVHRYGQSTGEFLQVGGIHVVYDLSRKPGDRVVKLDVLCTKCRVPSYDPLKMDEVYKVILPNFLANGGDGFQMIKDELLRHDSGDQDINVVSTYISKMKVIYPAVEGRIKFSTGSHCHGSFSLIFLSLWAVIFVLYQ
Assay [2] has as its target T1, 5'-nucleotidase. As to the kind of experiment: Inhibition of CD73 in human MDA-MB-231 cells assessed as reduction in conversion of AMP to adenosine incubated for 30 mins by malachite green reagent based assay. The format is cell-based.
In assay [3] the target is T1, 5'-nucleotidase. As to the kind of experiment: Inhibition of CD73 in human NCI-H292 cells assessed as reduction in conversion of AMP to adenosine incubated for 30 mins by malachite green reagent based assay. It counts as cell-based.
Assay [4] relates to CCRF-CEM. As to the kind of experiment: Cytotoxicity against human CCRF-CEM cells assessed as decrease in cell viability after 72 hrs by MTT assay. It counts as cell-based. A general note: Formazan colour is commonly taken as a measure of viable cells.
Assay [5] relates to Granta. As to the kind of experiment: Cytotoxicity against human Granta cells assessed as decrease in cell viability after 72 hrs by MTT assay. It counts as cell-based.
The subject of assay [6] is RL. Description: Cytotoxicity against human RL cells assessed as decrease in cell viability after 72 hrs by MTT assay. It counts as cell-based.
The test system of assay [7] is HL-60. As to the kind of experiment: Cytotoxicity against human HL60 cells assessed as decrease in cell viability after 72 hrs by MTT assay. The conditions noted are these: HL-60, 72 h. It counts as cell-based.

The source made the active and inactive calls. No cut-off for these calls is given here. Where only a bound is given, the exact number is not on record here.

On to `Nc1ncnc2c1ncn2[C@@H]1O[C@H](COP(=O)(O)CP(=O)(O)O)[C@@H](O)[C@H]1O` [PHOSPHOMETHYLPHOSPHONIC ACID ADENOSYL ESTER], for which the 50% inhibitory concentration (IC50) in assay [1] was 3.8 µM; in assay [2], 21.4 µM; in assay [3] it was 23.6 µM.

For the compound `Nc1nc(Cl)nc2c1ncn2[C@H]1C[C@H](O)[C@@H](COP(=O)(O)CP(=O)(O)O)O1`, in assay [1], the inhibition result was “Active”. Moreover, the IC50 was 147 µM in assay [2] and 2 µM in assay [3].

As for `Nc1nc(F)nc2c1ncn2[C@@H]1O[C@H](COP(=O)(O)CP(=O)(O)O)[C@@H](O)[C@@H]1O`, the inhibition entry in assay [1] was “Active”. Besides, the 50% inhibitory concentration (IC50) came out at 112 µM in assay [2] and 2.2 µM in assay [3].

Turning to `Nc1nc(Cl)nc2c1ncn2[C@@H]1O[C@H](COP(=O)(O)CP(=O)(O)O)[C@@H](O)[C@@H]1F`, the 50% inhibitory concentration (IC50) in assay [4] is 50.6 µM; in assay [5], 39.5 µM; in assay [1], 0.18 µM; in assay [2], 3.2 µM; in assay [3], 0.24 µM; in assay [6], more than 300 µM. Further, in assay [7], the IC50 stood at 49.4 µM.

With `Nc1nc(Cl)nc2c1ncn2[C@@H]1O[C@H](CO)[C@@H](O)[C@@H]1F` [CLOFARABINE], the IC50 was 0.044 µM in assay [4], 0.017 µM in assay [5], 0.38 µM in assay [6] and 0.04 µM in assay [7].
